Measurements reported in the supplement of paper PMC11451515.

Assays:
Details in all cases: 48 h
[1] = system: SEM cells; test: cell viability relative to DMSO control; higher = less cytotoxic
Procedure, shortened: (§1)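 Library compounds in DMSO were pin-dosed in an 11-point threefold series (47 μM to 0.79 nM) onto leukemia cells in 1536-well plates (5 μl). Plates held 500 cells/well of NOMO1 or SEM or 1000 cells/well of P12-Ichikawa, each adapted for at least four passages in each medium. Luminescence was read with CellTiter-Glo One after 48 h at 37°C. Viability means the per-plate percentage relative to DMSO wells, using cell-free wells as background.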

[2] = system: P12-Ichikawa; test: AUC of viability dose-response curve (% viability x log10 dose units); higher = less sensitive
Procedure, shortened: (§2)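 Library compounds in DMSO were applied for 48 h at 37°C at 11 threefold doses (47 μM to 0.79 nM) to medium-adapted leukemia cells in 1536-well plates holding 500 or 1000 cells/well. Luminescence from CellTiter-Glo One was normalised plate by plate against DMSO and cell-free wells. Area under the curve came from trapezoidal integration of a log-logistic fit, after scaling curves that rose above full viability and discarding those that failed quality control. The fit had four parameters and used log10 doses.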

[3] = system: NOMO1; test: as above
Procedure, shortened: as §2

[4] = system: SEM cells; test: as above
Procedure, shortened: as §2

[5] = system: NOMO1; test: cell viability relative to DMSO control; higher = less cytotoxic
Procedure, shortened: as §1

[6] = system: P12-Ichikawa; test: as above
Procedure, shortened: as §1

[7] = HPLM + 10% dialyzed FBS, 0.000781 µM
[8] = HPLM + 10% dialyzed FBS, 0.00234 µM
[9] = HPLM + 10% dialyzed FBS, 0.00702 µM
[10] = HPLM + 10% dialyzed FBS, 0.0211 µM
[11] = HPLM + 10% dialyzed FBS, 0.0632 µM
[12] = HPLM + 10% dialyzed FBS, 0.19 µM
[13] = HPLM + 10% dialyzed FBS, 0.569 µM
[14] = HPLM + 10% dialyzed FBS, 1.71 µM
[15] = HPLM + 10% dialyzed FBS, 5.12 µM
[16] = HPLM + 10% dialyzed FBS, 15.4 µM
[17] = HPLM + 10% dialyzed FBS, 46.1 µM
[18] = RPMI 5 mM glucose + 10% dialyzed FBS
[19] = RPMI 5 mM glucose + 10% FBS, 0.000781 µM
[20] = RPMI 5 mM glucose + 10% FBS, 0.00234 µM
[21] = RPMI 5 mM glucose + 10% FBS, 0.00702 µM
[22] = RPMI 5 mM glucose + 10% FBS, 0.0211 µM
[23] = RPMI 5 mM glucose + 10% FBS, 0.0632 µM
[24] = RPMI 5 mM glucose + 10% FBS, 0.19 µM
[25] = RPMI 5 mM glucose + 10% FBS, 0.569 µM
[26] = RPMI 5 mM glucose + 10% FBS, 1.71 µM
[27] = RPMI 5 mM glucose + 10% FBS, 5.12 µM
[28] = RPMI 5 mM glucose + 10% FBS, 15.4 µM
[29] = RPMI 5 mM glucose + 10% FBS, 46.1 µM
[30] = RPMI 5 mM glucose + 10% dialyzed FBS, 0.000781 µM
[31] = RPMI 5 mM glucose + 10% dialyzed FBS, 0.00234 µM
[32] = RPMI 5 mM glucose + 10% dialyzed FBS, 0.00702 µM
[33] = RPMI 5 mM glucose + 10% dialyzed FBS, 0.0211 µM
[34] = RPMI 5 mM glucose + 10% dialyzed FBS, 0.0632 µM
[35] = RPMI 5 mM glucose + 10% dialyzed FBS, 0.19 µM
[36] = RPMI 5 mM glucose + 10% dialyzed FBS, 0.569 µM
[37] = RPMI 5 mM glucose + 10% dialyzed FBS, 1.71 µM
[38] = RPMI 5 mM glucose + 10% dialyzed FBS, 5.12 µM
[39] = RPMI 5 mM glucose + 10% dialyzed FBS, 15.4 µM
[40] = RPMI 5 mM glucose + 10% dialyzed FBS, 46.1 µM

O=[S+]([O-])(F)Cc1ccccc1
cell viability [1, 7]: 120%
cell viability [1, 8]: 122%
cell viability [1, 9]: 134%
cell viability [1, 10]: 122%
cell viability [1, 11]: 125%
cell viability [1, 12]: 50.5%
cell viability [1, 13]: 109%
cell viability [1, 14]: 133%
cell viability [1, 15]: 114%
cell viability [1, 16]: 115%
cell viability [1, 17]: 112%
AUC of viability dose-response curve ([2]; HPLM + 10% dialyzed FBS): 446
AUC of viability dose-response curve ([2]; RPMI 5 mM glucose + 10% FBS): 448
AUC of viability dose-response curve [2, 18]: 442
AUC of viability dose-response curve ([3]; HPLM + 10% dialyzed FBS): 434
AUC of viability dose-response curve ([3]; RPMI 5 mM glucose + 10% FBS): 468
AUC of viability dose-response curve [3, 18]: 476
AUC of viability dose-response curve ([4]; HPLM + 10% dialyzed FBS): 455
AUC of viability dose-response curve ([4]; RPMI 5 mM glucose + 10% FBS): 440
AUC of viability dose-response curve [4, 18]: 446

NC/1=N/C(=O)N(C[C@@H](CO)OC[P](O)(O)=O)/C=C1
cell viability [5, 19]: 125%
cell viability [5, 20]: 149%
cell viability [5, 21]: 123%
cell viability [5, 22]: 122%
cell viability [5, 23]: 136%
cell viability [5, 24]: 135%
cell viability [5, 25]: 128%
cell viability [5, 26]: 119%
cell viability [5, 27]: 122%
cell viability [5, 28]: 123%
cell viability [5, 29]: 128%
cell viability [1, 7]: 115%
cell viability [1, 8]: 130%
cell viability [1, 9]: 120%
cell viability [1, 10]: 126%
cell viability [1, 11]: 139%
cell viability [1, 12]: 126%
cell viability [1, 13]: 120%
cell viability [1, 14]: 125%
cell viability [1, 15]: 106%
cell viability [1, 16]: 105%
cell viability [1, 17]: 94.6%
cell viability [1, 19]: 106%
cell viability [1, 20]: 103%
cell viability [1, 21]: 117%
cell viability [1, 22]: 99.2%
cell viability [1, 23]: 111%
cell viability [1, 24]: 113%
cell viability [1, 25]: 98.2%
cell viability [1, 26]: 95.2%
cell viability [1, 27]: 100%
cell viability [1, 28]: 97.7%
cell viability [1, 29]: 69.7%
cell viability [1, 30]: 136%
cell viability [1, 31]: 111%
cell viability [1, 32]: 115%
cell viability [1, 33]: 122%
cell viability [1, 34]: 131%
cell viability [1, 35]: 106%
cell viability [1, 36]: 128%
cell viability [1, 37]: 123%
cell viability [1, 38]: 101%
cell viability [1, 39]: 111%
cell viability [1, 40]: 100%
AUC of viability dose-response curve ([2]; HPLM + 10% dialyzed FBS): 458
AUC of viability dose-response curve ([2]; RPMI 5 mM glucose + 10% FBS): 443
AUC of viability dose-response curve [2, 18]: 460
AUC of viability dose-response curve ([3]; HPLM + 10% dialyzed FBS): 421
AUC of viability dose-response curve ([3]; RPMI 5 mM glucose + 10% FBS): 460
AUC of viability dose-response curve [3, 18]: 475
AUC of viability dose-response curve ([4]; HPLM + 10% dialyzed FBS): 455
AUC of viability dose-response curve ([4]; RPMI 5 mM glucose + 10% FBS): 466
AUC of viability dose-response curve [4, 18]: 439

CC(C[N+](C)(C)C)OC(N)=O (centres undefined)
cell viability [6, 7]: 109%
cell viability [6, 8]: 121%
cell viability [6, 9]: 116%
cell viability [6, 10]: 122%
cell viability [6, 11]: 114%
cell viability [6, 12]: 113%
cell viability [6, 13]: 120%
cell viability [6, 14]: 118%
cell viability [6, 15]: 111%
cell viability [6, 16]: 110%
cell viability [6, 17]: 102%
cell viability [6, 30]: 122%
cell viability [6, 31]: 119%
cell viability [6, 32]: 122%
cell viability [6, 33]: 125%
cell viability [6, 34]: 122%
cell viability [6, 35]: 119%
cell viability [6, 36]: 114%
cell viability [6, 37]: 128%
cell viability [6, 38]: 122%
cell viability [6, 39]: 109%
cell viability [6, 40]: 102%
cell viability [5, 7]: 128%
cell viability [5, 8]: 124%
cell viability [5, 9]: 121%
cell viability [5, 10]: 119%
cell viability [5, 11]: 131%
cell viability [5, 12]: 128%
cell viability [5, 13]: 116%
cell viability [5, 14]: 117%
cell viability [5, 15]: 119%
cell viability [5, 16]: 139%
cell viability [5, 17]: 103%
cell viability [5, 19]: 115%
cell viability [5, 20]: 109%
cell viability [5, 21]: 119%
cell viability [5, 22]: 106%
cell viability [5, 23]: 118%
cell viability [5, 24]: 108%
cell viability [5, 25]: 108%
cell viability [5, 26]: 105%
cell viability [5, 27]: 100%
cell viability [5, 28]: 101%
cell viability [5, 29]: 97.5%
cell viability [1, 7]: 107%
cell viability [1, 8]: 114%
cell viability [1, 9]: 83.5%
cell viability [1, 10]: 98.8%
cell viability [1, 11]: 96.1%
cell viability [1, 12]: 106%
cell viability [1, 13]: 104%
cell viability [1, 14]: 116%
cell viability [1, 15]: 106%
cell viability [1, 16]: 110%
cell viability [1, 17]: 97.6%
cell viability [1, 19]: 105%
cell viability [1, 20]: 105%
cell viability [1, 21]: 87%
cell viability [1, 22]: 128%
cell viability [1, 23]: 117%
cell viability [1, 24]: 132%
cell viability [1, 25]: 120%
cell viability [1, 26]: 124%
cell viability [1, 27]: 113%
cell viability [1, 28]: 120%
cell viability [1, 29]: 109%
cell viability [1, 30]: 116%
cell viability [1, 31]: 123%
cell viability [1, 32]: 88.7%
cell viability [1, 33]: 114%
cell viability [1, 34]: 120%
cell viability [1, 35]: 107%
cell viability [1, 36]: 125%
cell viability [1, 37]: 108%
cell viability [1, 38]: 112%
cell viability [1, 39]: 116%
cell viability [1, 40]: 108%
AUC of viability dose-response curve ([2]; HPLM + 10% dialyzed FBS): 469
AUC of viability dose-response curve ([2]; RPMI 5 mM glucose + 10% FBS): 456
AUC of viability dose-response curve [2, 18]: 468
AUC of viability dose-response curve ([3]; HPLM + 10% dialyzed FBS): 462
AUC of viability dose-response curve ([3]; RPMI 5 mM glucose + 10% FBS): 456
AUC of viability dose-response curve [3, 18]: 465
AUC of viability dose-response curve ([4]; HPLM + 10% dialyzed FBS): 462
AUC of viability dose-response curve ([4]; RPMI 5 mM glucose + 10% FBS): 456
AUC of viability dose-response curve [4, 18]: 477
